Measurements from patent publication US5019390A, “Anticancer agent--IMIC” (Research Corporation Technologies, Inc., priority 1987, dated 1991).

How the values were obtained:
[1] = system: P388 leukemia cells; assay: Viable P388 leukemia cells in cell culture (trypan blue); settings: 48 hours, 37° C.
[2] = system: P388 leukemia cells; assay: IP injection study in vivo, P388 leukemia in DBA/2 mice; settings: in vivo experiment 4, daily IP injections
Procedure: Mice were 26-27 days old. […] Purina mouse chow was supplied ad libitum.
In experiments 3 & 4 (Tables 12a & 13a) the DBA/2 mouse was used.
DNA was determined on total cells with no differentiation between viable and non-viable cells.

[3] = in vitro experiment 1, 8 ml treatment
[4] = in vitro experiment 2, 2 ml treatment

Structure (SMILES): O=C(O)c1cc(=O)[nH]c(=O)[nH]1 [Orotic Acid, orotic acid]
- % Inhibition Based on Ringers Locke Control [1, 3]: 11%
- Numbers of Viable P388 Cells/ml [1, 3]: .66 × 10^6 ± 3500 Cells/ml
- % Inhibition Based on Extraction Blank [1, 4]: Stimulation
- % Inhibition Based on PBS Control [1, 4]: Stimulation
- Numbers of Viable P388 Cells/ml [1, 4]: 1.90 × 10^6 ± 7100 Cells/ml
- % Inhibition (numbers of viable P388 cells) [2]: 38%
- DNA Content [2]: 428 µg/mL
- Numbers of Viable P388 Cells/ml [2]: 4.20 × 10^7 ± 630000 cells/ml
